Reference: the supplement of paper PMC10307832

Tests used:
Assay in all cases: relative viability (nuclei count vs DMSO), 5 days (fraction); higher = more cells survive
Midostaurin + Foretinib = compound: CO[C@@H]1[C@H](N(C)C(=O)c2ccccc2)C[C@H]2O[C@]1(C)n1c3ccccc3c3c4c(c5c6ccccc6n2c5c31)C(=O)NC4 [Midostaurin] + COc1cc2c(Oc3ccc(NC(=O)C4(C(=O)Nc5ccc(F)cc5)CC4)cc3F)ccnc2cc1OCCCN1CCOCC1 [Foretinib] (partner 0.25 µM)
Summary of the method: (§1)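 The day after seeding in 1536-well plates, lung cancer cell lines were treated by pin tool with a single drug, or with a fixed anchor-drug dose together with five library-drug doses (not always all listed) in √10 steps. After 5 days, a combined fix-and-stain solution (final 0.05% Triton X-100, 1% formaldehyde, 1 ug/ml Hoechst) was added. Nuclei counted on 4× images gave relative viability as treated counts over vehicle counts, reported as the median of duplicate plates.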

[1] = compound: COc1cc(-c2nn([C@H]3CC[C@H](N4CCN(C(C)=O)CC4)CC3)c3ncnc(N)c23)ccc1NC(=O)c1cc2ccccc2n1C + CC(=O)c1c(C)c2cnc(Nc3ccc(N4CCNCC4)cn3)nc2n(C2CCCC2)c1=O [Palbociclib] (partner 0.5 µM)
Summary of the method: as §1

[2] = compound: COc1cc(-c2nn([C@H]3CC[C@H](N4CCN(C(C)=O)CC4)CC3)c3ncnc(N)c23)ccc1NC(=O)c1cc2ccccc2n1C + COc1cccc2cc(-c3nc([C@H]4CC[C@H](C(=O)O)CC4)n4ncnc(N)c34)[nH]c12 [OSI-027] (partner 0.5 µM)
Summary of the method: as §1

[3] = compound: COc1cc(-c2nn([C@H]3CC[C@H](N4CCN(C(C)=O)CC4)CC3)c3ncnc(N)c23)ccc1NC(=O)c1cc2ccccc2n1C + CS(=O)(=O)N1CCN(Cc2cc3nc(-c4cccc5[nH]ncc45)nc(N4CCOCC4)c3s2)CC1 [Pictilisib] (partner 1 µM)
Summary of the method: as §1

[4] = compound: COc1cc(-c2nn([C@H]3CC[C@H](N4CCN(C(C)=O)CC4)CC3)c3ncnc(N)c23)ccc1NC(=O)c1cc2ccccc2n1C + O=C(c1cc(Cc2n[nH]c(=O)c3ccccc23)ccc1F)N1CCN(C(=O)C2CC2)CC1 [Olaparib] (partner 8 µM)
Summary of the method: as §1

NCI-H1734 showed a relative viability (Midostaurin + Foretinib; first compound 0.01 µM) of 0.878, a relative viability (Midostaurin + Foretinib; first compound 0.03162 µM) of 0.739 and a relative viability (Midostaurin + Foretinib; first compound 0.1 µM) of 0.866. The relative viability (Midostaurin + Foretinib; first compound 0.3162 µM) was 0.679, the relative viability ([1]; first compound 0.0128 µM) was 0.37 and the relative viability ([1]; first compound 0.04048 µM) was 0.332. The relative viability ([1]; first compound 0.128 µM) was 0.335, the relative viability ([1]; first compound 1.28 µM) was 0.276 and the relative viability ([2]; first compound 0.0128 µM) was 0.659. The relative viability ([2]; first compound 0.04048 µM) was 0.551, the relative viability ([2]; first compound 0.128 µM) was 0.613 and the relative viability ([2]; first compound 1.28 µM) was 0.485. The relative viability ([3]; first compound 0.0128 µM) was 0.47, the relative viability ([3]; first compound 0.04048 µM) was 0.38 and the relative viability ([3]; first compound 0.128 µM) was 0.481. The relative viability ([3]; first compound 1.28 µM) was 0.362, the relative viability ([4]; first compound 0.0128 µM) was 0.621 and the relative viability ([4]; first compound 0.04048 µM) was 0.562. It also gave a relative viability ([4]; first compound 0.128 µM) of 0.649 and a relative viability ([4]; first compound 1.28 µM) of 0.539.

For NCI-H1755, the relative viability (Midostaurin + Foretinib; first compound 0.01 µM) was 0.944, the relative viability (Midostaurin + Foretinib; first compound 0.03162 µM) was 0.848 and the relative viability (Midostaurin + Foretinib; first compound 0.1 µM) was 0.787. The relative viability (Midostaurin + Foretinib; first compound 0.3162 µM) was 0.628, the relative viability ([1]; first compound 0.0128 µM) was 0.54 and the relative viability ([1]; first compound 0.04048 µM) was 0.467. The relative viability ([1]; first compound 0.128 µM) was 0.458, the relative viability ([1]; first compound 1.28 µM) was 0.402 and the relative viability ([2]; first compound 0.0128 µM) was 0.829. It also gave a relative viability ([2]; first compound 0.04048 µM) of 0.644, a relative viability ([2]; first compound 0.128 µM) of 0.676 and a relative viability ([2]; first compound 1.28 µM) of 0.662. The relative viability ([3]; first compound 0.0128 µM) was 0.509, the relative viability ([3]; first compound 0.04048 µM) was 0.169 and the relative viability ([3]; first compound 0.128 µM) was 0.402. For the same cell line, the relative viability ([3]; first compound 1.28 µM) was 0.299, the relative viability ([4]; first compound 0.0128 µM) was 0.888 and the relative viability ([4]; first compound 0.04048 µM) was 0.922. It also gave a relative viability ([4]; first compound 0.128 µM) of 0.832 and a relative viability ([4]; first compound 1.28 µM) of 0.863.

For NCI-H1793, the relative viability (Midostaurin + Foretinib; first compound 0.01 µM) was 0.674, the relative viability (Midostaurin + Foretinib; first compound 0.03162 µM) was 0.644 and the relative viability (Midostaurin + Foretinib; first compound 0.1 µM) was 0.533. For the same cell line, the relative viability (Midostaurin + Foretinib; first compound 0.3162 µM) was 0.369, the relative viability ([1]; first compound 0.0128 µM) was 0.367 and the relative viability ([1]; first compound 0.04048 µM) was 0.342. It also gave a relative viability ([1]; first compound 0.128 µM) of 0.261, a relative viability ([1]; first compound 1.28 µM) of 0.239 and a relative viability ([2]; first compound 0.0128 µM) of 0.369. For the same cell line, the relative viability ([2]; first compound 0.04048 µM) was 0.177, the relative viability ([2]; first compound 0.128 µM) was 0.237 and the relative viability ([2]; first compound 1.28 µM) was 0.186. For the same cell line, the relative viability ([3]; first compound 0.0128 µM) was 0.424, the relative viability ([3]; first compound 0.04048 µM) was 0.288 and the relative viability ([3]; first compound 0.128 µM) was 0.285. It also gave a relative viability ([3]; first compound 1.28 µM) of 0.311, a relative viability ([4]; first compound 0.0128 µM) of 0.989 and a relative viability ([4]; first compound 0.04048 µM) of 1.08. It also gave a relative viability ([4]; first compound 0.128 µM) of 0.731 and a relative viability ([4]; first compound 1.28 µM) of 0.427.

NCI-H1915 gave a relative viability (Midostaurin + Foretinib; first compound 0.01 µM) of 1.1, a relative viability (Midostaurin + Foretinib; first compound 0.03162 µM) of 0.993 and a relative viability (Midostaurin + Foretinib; first compound 0.1 µM) of 1.04. It also gave a relative viability (Midostaurin + Foretinib; first compound 0.3162 µM) of 1.09, a relative viability ([1]; first compound 0.0128 µM) of 0.578 and a relative viability ([1]; first compound 0.04048 µM) of 0.441. For the same cell line, the relative viability ([1]; first compound 0.128 µM) was 0.495, the relative viability ([1]; first compound 1.28 µM) was 0.44 and the relative viability ([2]; first compound 0.0128 µM) was 0.677. It also gave a relative viability ([2]; first compound 0.04048 µM) of 0.404, a relative viability ([2]; first compound 0.128 µM) of 0.585 and a relative viability ([2]; first compound 1.28 µM) of 0.481. For the same cell line, the relative viability ([3]; first compound 0.0128 µM) was 0.968, the relative viability ([3]; first compound 0.04048 µM) was 0.532 and the relative viability ([3]; first compound 0.128 µM) was 0.939. For the same cell line, the relative viability ([3]; first compound 1.28 µM) was 0.879, the relative viability ([4]; first compound 0.0128 µM) was 0.273 and the relative viability ([4]; first compound 0.04048 µM) was 0.285. The relative viability ([4]; first compound 0.128 µM) was 0.262 and the relative viability ([4]; first compound 1.28 µM) was 0.248.

With NCI-H1944 the relative viability (Midostaurin + Foretinib; first compound 0.01 µM) was 0.893, the relative viability (Midostaurin + Foretinib; first compound 0.03162 µM) was 0.899 and the relative viability (Midostaurin + Foretinib; first compound 0.1 µM) was 0.711. It also gave a relative viability (Midostaurin + Foretinib; first compound 0.3162 µM) of 0.853, a relative viability ([1]; first compound 0.0128 µM) of 0.352 and a relative viability ([1]; first compound 0.04048 µM) of 0.32. It also gave a relative viability ([1]; first compound 0.128 µM) of 0.363, a relative viability ([1]; first compound 1.28 µM) of 0.203 and a relative viability ([2]; first compound 0.0128 µM) of 0.457. The relative viability ([2]; first compound 0.04048 µM) was 0.332, the relative viability ([2]; first compound 0.128 µM) was 0.412 and the relative viability ([2]; first compound 1.28 µM) was 0.353. It also gave a relative viability ([3]; first compound 0.0128 µM) of 0.362, a relative viability ([3]; first compound 0.04048 µM) of 0.301 and a relative viability ([3]; first compound 0.128 µM) of 0.327. The relative viability ([3]; first compound 1.28 µM) was 0.285, the relative viability ([4]; first compound 0.0128 µM) was 0.431 and the relative viability ([4]; first compound 0.04048 µM) was 0.409. The relative viability ([4]; first compound 0.128 µM) was 0.444 and the relative viability ([4]; first compound 1.28 µM) was 0.331.

Work on NCI-H1975 yielded a relative viability (Midostaurin + Foretinib; first compound 0.01 µM) of 0.925, a relative viability (Midostaurin + Foretinib; first compound 0.03162 µM) of 1.01 and a relative viability (Midostaurin + Foretinib; first compound 0.1 µM) of 0.952. It also gave a relative viability (Midostaurin + Foretinib; first compound 0.3162 µM) of 0.647, a relative viability ([1]; first compound 0.0128 µM) of 0.534 and a relative viability ([1]; first compound 0.04048 µM) of 0.541. It also gave a relative viability ([1]; first compound 0.128 µM) of 0.513, a relative viability ([1]; first compound 1.28 µM) of 0.23 and a relative viability ([2]; first compound 0.0128 µM) of 0.676. It also gave a relative viability ([2]; first compound 0.04048 µM) of 0.669, a relative viability ([2]; first compound 0.128 µM) of 0.611 and a relative viability ([2]; first compound 1.28 µM) of 0.277. The relative viability ([3]; first compound 0.0128 µM) was 0.322, the relative viability ([3]; first compound 0.04048 µM) was 0.31 and the relative viability ([3]; first compound 0.128 µM) was 0.234. For the same cell line, the relative viability ([3]; first compound 1.28 µM) was 0.149, the relative viability ([4]; first compound 0.0128 µM) was 0.819 and the relative viability ([4]; first compound 0.04048 µM) was 0.978. The relative viability ([4]; first compound 0.128 µM) was 0.794 and the relative viability ([4]; first compound 1.28 µM) was 0.494.

NCI-H1993 gave a relative viability (Midostaurin + Foretinib; first compound 0.01 µM) of 0.863, a relative viability (Midostaurin + Foretinib; first compound 0.03162 µM) of 0.761 and a relative viability (Midostaurin + Foretinib; first compound 0.1 µM) of 0.765. The relative viability (Midostaurin + Foretinib; first compound 0.3162 µM) was 0.935, the relative viability ([1]; first compound 0.0128 µM) was 0.616 and the relative viability ([1]; first compound 0.04048 µM) was 0.58. It also gave a relative viability ([1]; first compound 0.128 µM) of 0.617, a relative viability ([1]; first compound 1.28 µM) of 0.605 and a relative viability ([2]; first compound 0.0128 µM) of 0.52. It also gave a relative viability ([2]; first compound 0.04048 µM) of 0.575, a relative viability ([2]; first compound 0.128 µM) of 0.552 and a relative viability ([2]; first compound 1.28 µM) of 0.431. It also gave a relative viability ([3]; first compound 0.0128 µM) of 0.845, a relative viability ([3]; first compound 0.04048 µM) of 0.899 and a relative viability ([3]; first compound 0.128 µM) of 0.826. For the same cell line, the relative viability ([3]; first compound 1.28 µM) was 0.775, the relative viability ([4]; first compound 0.0128 µM) was 0.997 and the relative viability ([4]; first compound 0.04048 µM) was 1.11. It also gave a relative viability ([4]; first compound 0.128 µM) of 0.885 and a relative viability ([4]; first compound 1.28 µM) of 0.891.

Cell Line NCI-H2009 has a relative viability (Midostaurin + Foretinib; first compound 0.01 µM) of 1.22, a relative viability (Midostaurin + Foretinib; first compound 0.03162 µM) of 1.09 and a relative viability (Midostaurin + Foretinib; first compound 0.1 µM) of 0.88. For the same cell line, the relative viability (Midostaurin + Foretinib; first compound 0.3162 µM) was 1.16, the relative viability ([1]; first compound 0.0128 µM) was 0.172 and the relative viability ([1]; first compound 0.04048 µM) was 0.148. The relative viability ([1]; first compound 0.128 µM) was 0.219, the relative viability ([1]; first compound 1.28 µM) was 0.179 and the relative viability ([2]; first compound 0.0128 µM) was 0.618. For the same cell line, the relative viability ([2]; first compound 0.04048 µM) was 0.463, the relative viability ([2]; first compound 0.128 µM) was 0.635 and the relative viability ([2]; first compound 1.28 µM) was 0.54. It also gave a relative viability ([3]; first compound 0.0128 µM) of 0.783, a relative viability ([3]; first compound 0.04048 µM) of 0.303 and a relative viability ([3]; first compound 0.128 µM) of 0.649. It also gave a relative viability ([3]; first compound 1.28 µM) of 0.578, a relative viability ([4]; first compound 0.0128 µM) of 0.706 and a relative viability ([4]; first compound 0.04048 µM) of 0.714. For the same cell line, the relative viability ([4]; first compound 0.128 µM) was 0.674 and the relative viability ([4]; first compound 1.28 µM) was 0.69.
